Experiments:
Assay in all cases: Microbiocidal activity of bandage samples on inoculated agar
Format in all cases: cell-based
Details in all cases: benzalkonium chloride in the dressing and bandage of the invention
Escherichia coli = system: Escherichia coli
Description: (§1) The purpose of this test was to determine whether the efficacy of the benzalkonium chloride contained within the absorbent substrate of a bandage of the invention would be adversely affected when a portion of the skin-facing surface of the absorbent substrate contained a discontinuous coating of an ointment-like composition. The specimens tested were the bandages of Example 4 comprising the dressing of Example 2. Test samples 2.5 cm×2 cm were cut from the bandages so as to remove the longitudinally extending adhesive strip portions that extended beyond the boundary of the dressing portion of the bandage.
(§2) The microbiocidal activity of the benzalkonium chloride in the dressing was tested by placing samples of the dressing on a peptone-casein-soya agar growth medium contained in petri dishes having an area of 64 square centimeters that had been inoculated with certain microorganisms. The test samples were placed in the dishes so that the skin facing side of the dressing contacted the agar medium. The following microorganisms were used:
(§3) The bactericidal suspensions for seeding of the prepared petri dishes were taken from cultures in their exponential growth phase. The concentration of each suspension was determined according to an AENOR (Association Francaise Normalisation) standard method using spectrophotometry at 620 nm. Suspensions of the desired concentration were then prepared by successive dilution to give seeding stock solutions.
(§4) A standard volume of the seeding stock solution was placed in the center of each prepared petri dish and spread with the help of a spreader. The inoculated plates were dried off in a drying oven at 37° C. for 30 minutes. The dressings were placed on top of the medium in the manner described above, and the petri dishes were then incubated for a total of 24 to 48 hours at 37° C. Dishes were removed from the incubator periodically and the extent of bacterial growth underneath the dressing was measured.

Mycobacterium smegmatis = system: Mycobacterium smegmatis
Description: as §1, §2, §3, §4

Staphylococcus aureus = system: Staphylococcus aureus
Description: as §1, §2, §3, §4

Streptococcus foecalis = system: Streptococcus foecalis
Description: as §1, §2, §3, §4

Measured: bactericidal activity (summary in words)

benzalkonium chloride
significant bactericidal activity: Escherichia coli | Mycobacterium smegmatis | Staphylococcus aureus | Streptococcus foecalis

— US6599525B2, “Dressings and bandages comprising same” (Johnson & Johnson Consumer Companies, Inc., priority 1998, dated 2003)
